Source: patent US20100004234A1, “SPECIFIC KINASE INHIBITORS” (Kosan Biosciences Incorporated, priority 2004, published 2010)

How the values were obtained:
p70S6K(h) = assay: Kinase panel, residual activity; assay type: biochemical, human; conditions: 0.2 μM
Method: (§1) In this panel of 124 kinases, 18 of the 19 kinases identified as having an active site cysteine were inhibited to some extent by hypothemycin at a concentration of 0.2 μM and/or 2 μM.

PKCα(h) = PKCα(h) (Homo sapiens, UniProt P17252); assay: Kinase panel, residual activity; assay type: biochemical; conditions: read-out: Percent residual activity
Method: as §1

PRAK(h) = PRAK(h) (Homo sapiens, UniProt Q8IW41); assay: Kinase panel, residual activity; assay type: biochemical; conditions: read-out: Percent residual activity
Sequence of PRAK(h) (Q8IW41 whole entry): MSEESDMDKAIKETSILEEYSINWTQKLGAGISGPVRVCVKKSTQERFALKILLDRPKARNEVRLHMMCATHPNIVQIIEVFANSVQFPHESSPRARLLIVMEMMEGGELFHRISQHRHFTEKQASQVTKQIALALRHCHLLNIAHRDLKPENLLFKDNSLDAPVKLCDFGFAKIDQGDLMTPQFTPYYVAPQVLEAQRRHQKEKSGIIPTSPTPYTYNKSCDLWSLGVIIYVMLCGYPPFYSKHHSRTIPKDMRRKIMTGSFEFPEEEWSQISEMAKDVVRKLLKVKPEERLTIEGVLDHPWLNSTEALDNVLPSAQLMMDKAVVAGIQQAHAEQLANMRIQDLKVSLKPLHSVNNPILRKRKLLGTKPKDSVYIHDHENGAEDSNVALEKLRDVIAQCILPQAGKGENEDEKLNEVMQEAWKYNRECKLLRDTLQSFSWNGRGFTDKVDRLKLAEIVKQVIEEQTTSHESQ
Method: as §1

Pim-1(h) = Pim-1(h) (Homo sapiens, UniProt P11309); assay: Kinase panel, residual activity; assay type: biochemical; conditions: read-out: Percent residual activity
Sequence of Pim-1(h) (P11309 whole entry): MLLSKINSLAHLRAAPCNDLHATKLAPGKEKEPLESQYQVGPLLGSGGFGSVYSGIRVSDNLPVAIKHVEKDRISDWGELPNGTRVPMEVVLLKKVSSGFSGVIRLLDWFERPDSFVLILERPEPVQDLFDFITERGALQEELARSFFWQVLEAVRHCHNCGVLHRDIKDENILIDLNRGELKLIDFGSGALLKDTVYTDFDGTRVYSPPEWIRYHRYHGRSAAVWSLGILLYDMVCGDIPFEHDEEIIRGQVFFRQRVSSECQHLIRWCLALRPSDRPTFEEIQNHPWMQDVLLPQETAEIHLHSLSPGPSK
Method: as §1

[1] = tested on: SKOV3 (ovarian cancer cell line, wild-type B-Raf); assay: Cell proliferation assay; assay type: cell-based; conditions: Homo sapiens, SK-OV-3, read-out: Cell Line IC50 SKOV3
Method: In one illustrative method, cells are treated with various concentrations of the inhibitor in 96 well plates, incubated at 37° C./5% CO2 for three days, and analyzed using the Cell Titer Glo kit (Promega).
COLO829 is a human melanoma cell line. HT29 is a human colon cancer cell line. Both cell lines have a V600E B-Raf mutation. SKOV3 is an ovarian cancer cell line having wild-type B-Raf. EKR2 (extra-cellular signal regulated kinase 2) is a kinase in the Ras/B-Raf MAP kinase cascade pathway.

MEK1 [2] = biological target: T1, MEK1 (Homo sapiens, UniProt Q02750); assay: Time-dependent kinase inhibition kinetics (pre-incubation, [32P]ATP filter binding); assay type: biochemical
T1 sequence (Q02750 whole entry): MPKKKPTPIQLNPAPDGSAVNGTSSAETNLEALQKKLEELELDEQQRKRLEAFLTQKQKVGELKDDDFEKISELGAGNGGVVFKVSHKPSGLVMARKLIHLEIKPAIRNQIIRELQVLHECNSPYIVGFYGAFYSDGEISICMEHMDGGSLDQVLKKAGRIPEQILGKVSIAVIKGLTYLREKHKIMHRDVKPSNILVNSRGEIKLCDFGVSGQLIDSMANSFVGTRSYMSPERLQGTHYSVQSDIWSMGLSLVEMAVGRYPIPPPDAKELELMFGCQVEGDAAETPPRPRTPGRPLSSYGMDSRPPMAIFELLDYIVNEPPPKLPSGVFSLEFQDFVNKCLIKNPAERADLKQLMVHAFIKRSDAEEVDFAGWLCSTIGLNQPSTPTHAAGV
Method: Typically, one measures the increase in inhibition of protein kinase activity in the presence of inhibitor over time. In one method, aliquots of a “pre-incubation” reaction mixture containing enzyme and inhibitor are assayed for activity (initial velocities) over time; increased inhibition or decreased initial velocities will be observed over time as the Michael adduct forms (Walsh, C, Enzyme Reaction Mechanisms, W.H. Freeman & Co., 1979, pp 86-94). In a second method, the time dependent loss of activity is measured as “progress curves” that measure and analyze product formed (e.g. ADP) versus time (Morrison & Walsh, Adv. Enzymol Relat Areas Mol. Biol. 1988, 61, 201-301). In either case, the time dependent inactivation can be dampened by the presence of a competing substrate, in this case ATP.
MEK1 and many other protein kinases that can be targets of the compounds useful in the methods of the invention can be obtained commercially (Invitrogen; Carlsbad, Calif.) or prepared using standard molecular biology techniques. After activation by phosphorylation, they are assayed for their ability to phosphorylate a target kinase or surrogate substrate. For example, MEK1 can be assayed in a mixture containing MEK1 (30 nM) and ERK1 (2 μM), [γ-^32P]ATP (10 uM) and MgCl2 in Mops buffer pH 7.6. Phosphorylation can be measured by isolating [γ-^32P]-phosphorylated ERK1 on phosphocellulose paper, and counting radioactive product. Alternatively, a coupled enzyme system may be used in which a product of the kinase reaction, such as ADP, is measured by analysis with a secondary system that converts that product (e.g. ADP) to an easily measurable entity (e.g. NADH); often, such coupled systems can be measured by convenient spectrophotometry assays.
To measure time-dependent inhibition using the “pre-incubation method”, MEK1 (or other kinase) is incubated with varying amounts of the lactone inhibitor; […]. Aliquots are removed at various times, added to a solution containing substrates [γ-^32P]ATP, ERK1 (or other substrate), and the other components of the reaction, and initial rates are determined as a measure of remaining enzyme activity.
For covalent inhibitors, plots of log (activity) versus time provide apparent first-order rate constants (kobsd) of enzyme activity loss. If these assays are performed at varying concentrations of inhibitor, a series of first-order plots is obtained and kobsd obtained at each inhibitor concentration. To measure time-dependent inhibition using the “progress-curve method” (see references cited above and Kuzmic et al., Methods Enzymol 2004; 383: 366-81), ERK (or other kinase) is treated with varying amounts of the lactone inhibitor, and the formation of ADP is measured continuously by a coupled assay. […] Such molecules may be competitive inhibitors but should not show time-dependent inactivation.
Those of skill in the art will recognize that within the set of compounds useful in the methods of the invention, significant variability in specificity can be achieved, allowing one to identify optimal compounds for different applications. Inhibition progress curve analysis was performed using continuous, colorimetric, or fluorimetric assays. All experiments were done at 1 mM ATP, with the exception of KDR (at 5 mM ATP).
(§2) MEK1 assays were performed using pre-incubation experiments with radioactive [^32P]ATP and filter binding of product. All other kinases were analyzed using progress curve analysis from a continuous spectrophotometric assay.

A375 xenograft = assay: B-Raf mutant melanoma (A375) xenograft model; assay type: in vivo
Description: The sensitivity of B-Raf mutated cancer cell lines to RALs was confirmed in a B-Raf mutant melanoma (A375) xenograft model.

[3] = tested on: phosphorylated FLT3, MEK and ERK in MV-4-11 (FLT3(ITD)); assay: Phosphorylation state of kinases in MV-4-11 cells; assay type: cell-based; conditions: MV-4-11, FLT3(ITD) mutation
Method: The downstream effects of inhibition of a particular kinase (e.g. MEK) can be established by measuring the phosphorylation state of several proteins that require that kinase for phosphorylation (e.g. ERK1). Cultured cells are treated with hypothemycin or other lactone analogs described herein, and Western blots of cell extracts are probed with antibodies specific for the unmodified and phosphorylated forms of the downstream targets. As an example, the effects of hypothemycin on MEK1/2 can be determined by measuring the level of ERK1/2 phosphorylation.

MEK1 [4] = biological target: T1, MEK1; conditions: cited from earlier work
ERK2 = ERK2 (UniProt P28482); assay type: biochemical; parameters: Ki; other: ERK2; 1 mM ATP; kinact; T1/2; kinact/Ki; "the target Cys 172 residue; conditions: ERK2
Method: In either case, the time dependent inactivation can be dampened by the presence of a competing substrate, in this case ATP.
For covalent inhibitors, plots of log (activity) versus time provide apparent first-order rate constants (kobsd) of enzyme activity loss. If these assays are performed at varying concentrations of inhibitor, a series of first-order plots is obtained and kobsd obtained at each inhibitor concentration. […] Such molecules may be competitive inhibitors but should not show time-dependent inactivation.
Inhibition progress curve analysis was performed using continuous, colorimetric, or fluorimetric assays. All experiments were done at 1 mM ATP, with the exception of KDR (at 5 mM ATP).
as §2

## COc1cc(O)c2c(c1)[C@H]1O[C@@H]1C[C@H](O)[C@H](O)C(=O)/C=C\C[C@H](C)OC2=O [Hypothemycin, hypothemycin]
p70S6K(h)
  Percent residual activity: 94%
PKCα(h)
  remaining activity at 0.2 µM: 96%
PRAK(h); 0.2 μM
  remaining activity at 0.2 µM: 20%
PRAK(h); 2.0 μM
  remaining activity at 2 µM: 1%
Pim-1(h)
  remaining activity at 0.2 µM: 100%
[1]
  IC50: ~4 µM
MEK1 [2]
  kinact/KI: 130000 M⁻¹ s⁻¹
MEK1 [2]; 1 mM ATP
  Ki: 0.019 µM
MEK1 [2]; 1 mM ATP, read-out: kinact
  kinact: 0.003 s⁻¹
A375 xenograft; administered daily at 15 mg/kg or 20 mg/kg, FIG. 6
  growth of the A375 xenograft relative to vehicle alone: significantly inhibits the growth
A375 xenograft; hypothemycin at both dosages vs Bayer 43-9006 25 mg/kg or 50 mg/kg every other day
  A375 xenograft growth inhibition compared with Bayer 43-9006: significantly better
[3]
  phosphorylated forms of FLT3, MEK and ERK: loss of phosphorylated forms
MEK1 [4]
  potency as MEK1 inhibitor relative to L-783,277 (fold less potent): 4 fold
ERK2
  kinact/Ki: 1900 M⁻¹ s⁻¹
ERK2; 1 mM ATP
  Ki: 2.7 µM
  kinact: 0.005 s⁻¹
